How the values were obtained:
UACC-62 = assay: NCI 60 single concentration growth inhibition; type: cell-based, human; details: UACC-62, Melanoma; for GI%: 10 μM; for inhibition at 10 µM: Homo sapiens, read-out: GI%
Method: (§1) The synthesized dichlorobenzimidazoles 10a–p were assayed for their influence on divers cancer cell lines according to the method presented in the Additional file A.
(§2) 5. Screening of cytotoxic activity against a panel of sixty human tumor cell lines
(§3) The selected compounds by NCI were evaluated for their anticancer activity in a two-stage process. First, these compounds were screened against the full NCI 60 cell lines panel at a single high dose of 10 µM. Then, the output from the single dose screen is reported as a mean graph. […]
(§4) at five different minimal concentrations.
(§5) Assay protocol. The human tumor cell lines of the cancer screening panel are grown in RPMI 1640 medium containing 5% fetal bovine serum and 2 mM L-glutamine. For a typical screening experiment, cells are inoculated into 96 well microtiter plates in 100 µL at plating densities ranging from 5000 to 40,000 cells/well depending on the doubling time of individual cell lines. After cell inoculation, the microtiter plates are incubated at 37 °C, 5% CO 2, 95% air and 100% relative humidity for 24 h prior to addition of the experimental drugs.
(§6) After 24 h, two plates of each cell line are fixed in situ with TCA, to represent a measurement of the cell population for each cell line at the time of drug addition (Tz). The experimental drugs are solubilized in dimethyl sulfoxide at 400-fold the desired final maximum test concentration and stored frozen prior to use. At the time of drug addition, an aliquot of frozen concentrate is thawed and diluted to twice the desired final maximum test concentration with complete medium containing 50 µg/mL gentamicin. Additional four, 10-fold or ½ log serial dilutions are made to provide a total of five drug concentrations plus control.
(§7) Aliquots of […] of these different drug dilutions are added to the appropriate microtiter wells already containing […] of medium, resulting in the required final drug concentrations.
(§8) Following drug addition, the plates are incubated for an additional 48 h at 37 °C, 5% CO 2, 95% air, and 100% relative humidity. For adherent cells, the assay is terminated by the addition of cold TCA.
(§9) Cells are fixed in situ by the gentle addition of 50 µL of cold 50% (w/v) TCA (final concentration, 10% TCA) and incubated for 60 min at 4 °C. The supernatant is discarded, and the plates are washed five times with tap water and air dried. Sulforhodamine B (SRB) solution ([…]) at 0.4% (w/v) in 1% acetic acid is added to each well, and plates are incubated for 10 min at room temperature. After staining, unbound dye is removed by washing five times with 1% acetic acid and the plates are air dried. Bound stain is subsequently solubilized with 10 mM trizma base, and the absorbance is read on an automated plate reader at a wavelength of 515 nm. For suspension cells, the methodology is […]
(§10) the same except that the assay is terminated by fixing settled cells at the bottom of the wells by gently adding 50 µl of 80% TCA (final concentration, 16% TCA). Using the seven absorbance measurements [time zero, (Tz), control growth, (C), and test growth in the presence of drug at the five concentration levels (Ti)], the percentage growth is calculated at each of the drug concentrations […]
(§11) Percentage growth inhibition is calculated as: [(Ti Tz)/(C–Tz)] x 100 for concentrations for which Ti>/=Tz and [(Ti-Tz)/Tz] x 100 for concentrations for which Ti < Tz.
(§12) Three dose response parameters are calculated for each experimental agent. Growth […]
(§13) concentration resulting in a 50% reduction in the net protein increase (as measured by SRB staining) in control cells during the drug incubation. The drug concentration resulting in total growth inhibition (TGI) is calculated from Ti = Tz. […]
(§14) reduction in the measured protein at the end of the drug treatment as compared to that at the beginning) indicating a net loss of cells following treatment is calculated from [(Ti–Tz)/Tz] x 100 =
(§15) _50. Values are calculated for each of these three parameters if the level of activity is reached; […]

BT-549 = assay: NCI 60 single concentration growth inhibition; type: cell-based, human; details: BT-549, Breast cancer; for GI%: 10 μM; for inhibition at 10 µM: Homo sapiens, read-out: GI%
Method: as §1, §2, §3, §4, §5, §6, §7, §8, §9, §10, §11, §12, §13, §14, §15

SN12C = assay: NCI 60 single concentration growth inhibition; type: cell-based, human; details: Renal cancer; for GI%: 10 μM; for inhibition at 10 µM: Homo sapiens, read-out: GI%
Method: as §1, §2, §3, §4, §5, §6, §7, §8, §9, §10, §11, §12, §13, §14, §15

HL-60(TB) = assay: NCI 60 single concentration growth inhibition; type: cell-based, human; details: Leukemia; for GI%: 10 μM; for inhibition at 10 µM: Homo sapiens, read-out: GI%
Method: as §1, §2, §3, §4, §5, §6, §7, §8, §9, §10, §11, §12, §13, §14, §15

UACC-257 = assay: NCI 60 single concentration growth inhibition; type: cell-based, human; details: UACC-257, Melanoma; for GI%: 10 μM; for inhibition at 10 µM: Homo sapiens, read-out: GI%
Method: as §1, §2, §3, §4, §5, §6, §7, §8, §9, §10, §11, §12, §13, §14, §15

RPMI-8226 = assay: NCI 60 single concentration growth inhibition; type: cell-based, human; details: RPMI-8226, Leukemia; for GI%: 10 μM; for inhibition at 10 µM: Homo sapiens, read-out: GI%
Method: as §1, §2, §3, §4, §5, §6, §7, §8, §9, §10, §11, §12, §13, §14, §15

BRAFWT = biological target: T1, BRAFWT (Homo sapiens, UniProt P15056); assay: BRAFWT kinase assay kit (Kinase-Glo Max luminescence); type: biochemical; details: BRAFwt, 10 µM; mean of two independent experiments ± SD
T1 construct: purchased BPS Biosciences 78316
T1 sequence (P15056 whole entry): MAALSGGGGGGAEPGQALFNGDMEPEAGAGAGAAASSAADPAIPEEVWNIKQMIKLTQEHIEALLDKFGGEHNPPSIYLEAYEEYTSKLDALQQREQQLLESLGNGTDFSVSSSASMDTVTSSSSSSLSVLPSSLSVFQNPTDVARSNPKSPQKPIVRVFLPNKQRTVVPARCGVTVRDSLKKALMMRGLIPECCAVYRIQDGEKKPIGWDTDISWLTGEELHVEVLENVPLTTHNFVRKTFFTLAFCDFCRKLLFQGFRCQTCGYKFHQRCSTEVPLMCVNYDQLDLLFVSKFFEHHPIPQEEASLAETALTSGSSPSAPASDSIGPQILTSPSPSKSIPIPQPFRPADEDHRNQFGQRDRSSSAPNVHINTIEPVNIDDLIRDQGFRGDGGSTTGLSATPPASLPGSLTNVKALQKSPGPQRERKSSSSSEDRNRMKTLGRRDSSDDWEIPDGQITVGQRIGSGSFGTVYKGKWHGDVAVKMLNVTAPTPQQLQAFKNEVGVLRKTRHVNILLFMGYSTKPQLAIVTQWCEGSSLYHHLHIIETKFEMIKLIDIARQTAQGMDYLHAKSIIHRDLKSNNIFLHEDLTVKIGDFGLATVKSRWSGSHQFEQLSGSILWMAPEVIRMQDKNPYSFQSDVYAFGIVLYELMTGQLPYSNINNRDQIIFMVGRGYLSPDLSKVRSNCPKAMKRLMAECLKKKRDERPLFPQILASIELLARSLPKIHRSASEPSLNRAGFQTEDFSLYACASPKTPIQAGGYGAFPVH
Method: The inhibitory activities of 10a–p on BRAFWT was examined utilizing BRAFWT assay kit (BPS Biosciences—San Diego—CA—US) (For further information see Additional file A).
4. Biochemical kinase assays
The inhibitory activity against different kinases was determined using kinase kits (BRAF WT […]
Glo Max luminescence kinase assay kit (Promega).
The assay was carried out according to the protocol provided by the manufacturer. A stock solution of the synthesized derivatives in 100% DMSO was prepared. Subsequently, the compounds were diluted to 10% DMSO.
A master mixture was prepared according to the number of wells. For BRAF assay each well include 6 μl of 5x Kinase Buffer 1 + 1 μl of ATP (500 μM) + 10 μl of 5X Raf substrate + 8 μl of distilled water. 1x Kinase buffer 1 was prepared by mixing 600 μl of 5x Kinase Buffer 1 with 2400 μl water to give 3 mL. Kinases were thawed on ice and were diluted with 1x Kinase Buffer 1.
To start the biochemical reaction, 25 µL of the master mixture was added to each well in 96 well plate. 5 µL of 10% DMSO was added to positive control wells and blank wells. 5 µL of diluted inhibitor was added to each well labelled with the test inhibitor so that the final concentration of DMSO is 1% in all reactions. Then 20 µL of (2.5 ng/μl) in case of BRAF WT and (1 ng / μl) in case of VEGFR-2 and FGFR-1 in 1x kinase buffer was added to positive control wells and wells labelled with the inhibitor, while 20 µL 1x kinase buffer 1 was added to the blank wells.
The plate was incubated at 30 °C for 45 min. Subsequently, 50 μl of Kinase-Glo Max luminescence reagent was added to each well and the plate was covered with aluminum foil and incubated at room temperature for 15 min. Finally, the luminescence was recorded using multimode microplate reader. Kinase activity assays were performed in duplicate at each concentration.
The luminescence data were analyzed as follows. The difference between luminescence intensities in the absence of kinase (Lu t) and in the presence of kinase (Lu c) was defined as 100 % […]
calculated as: % activity = {(Lu t - Lu)/(Lut - Luc)} ×100%. The concentration of the test compounds required to reduce the kinase activity by 50% was determined from dose-response curves and […]

[1] = system: NCI 60 cancer cell line panel; assay: NCI 60 single concentration growth inhibition, panel mean; type: cell-based; details: Homo sapiens, mean over NCI 60 panel, read-out: Mean GI%
Method: as §1, §2, §3, §4, §5, §6, §7, §8, §9, §10, §11, §12, §13, §14, §15

Compound	GI% (UACC-62)	GI% (BT-549)	GI% (SN12C)	GI% (HL-60(TB))	GI% (UACC-257)	GI% (RPMI-8226)	% inhibition (BRAFWT)	inhibition at 10 µM (UACC-62)	inhibition at 10 µM (BT-549)	inhibition at 10 µM (SN12C)	inhibition at 10 µM (HL-60(TB))	inhibition at 10 µM (UACC-257)	inhibition at 10 µM (RPMI-8226)	inhibition at 10 µM [1]	inhibition at 10 µM (BRAFWT)
2-(4-((2-(2-(5,6-Dichloro-2-(4-methoxyphenyl)-1H-benzo[d]imidazol-1-yl)acetyl)hydrazono)methyl) -2-methoxyphenoxy)acetic acid [Compound 10m]	6.42%	– (GI% < 5%)	5.24%	– (GI% < 5%)	– (GI% < 5%)	– (GI% < 5%)	77.25 ± 1.06%	–	–	–	–	–	–	–	–
2-(5-((2-(2-(5,6-Dichloro-2-(4-methoxyphenyl)-1H-benzo[d]imidazol-1-yl)acetyl)hydrazono)methyl)-2-methoxyphenoxy)acetic acid [Compound 10n]	9.71%	– (GI% < 5%)	5.05%	– (GI% < 5%)	– (GI% < 5%)	– (GI% < 5%)	90.05 ± 5.16%	–	–	–	–	–	–	–	–
3-(4-((2-(2-(5,6-Dichloro-2-(4-methoxyphenyl)-1H-benzo[d]imidazol-1-yl)acetyl)hydrazono)methyl)phenoxy)propanoic acid [Compound 10i]	10.17%	11.38%	– (GI% < 5%)	– (GI% < 5%)	– (GI% < 5%)	– (GI% < 5%)	74.95 ± 5.15%	–	–	–	–	–	–	–	–
COc1ccc(-c2nc3cc(Cl)c(Cl)cc3n2CC(=O)NN=Cc2cccc(O)c2)cc1 [Compound 10a, 2-(5,6-Dichloro-2-(4-methoxyphenyl)-1H-benzo[d]imidazol-1-yl)-N'-(3-hydroxybenzylidene)acetohydrazide]	–	–	–	–	–	–	–	40%	47.8%	31.3%	42.6%	57.7%	67.4%	46.9%	22.5 ± 1%
COc1ccc(-c2nc3cc(Cl)c(Cl)cc3n2CC(=O)NN=Cc2ccc(O)cc2)cc1 [Compound 10b, 2-(5,6-Dichloro-2-(4-methoxyphenyl)-1H-benzo[d]imidazol-1-yl)-N'-(4-hydroxybenzylidene)acetohydrazide]	–	–	–	–	–	–	–	38%	65.6%	18%	50.7%	23.9%	62.1%	38.5%	21.9 ± 1.62%
COc1ccc(-c2nc3cc(Cl)c(Cl)cc3n2CC(=O)NN=Cc2cccc(OC)c2)cc1 [Compound 10c, 2-(5,6-Dichloro-2-(4-methoxyphenyl)-1H-benzo[d]imidazol-1-yl)-N'-(3-methoxybenzylidene)acetohydrazide]	–	–	–	–	–	–	–	37.2%	52.9%	9.21%	28.8%	20.9%	47.3%	28.1%	53.85 ± 0.001%
COc1ccc(C=NNC(=O)Cn2c(-c3ccc(OC)cc3)nc3cc(Cl)c(Cl)cc32)cc1 [Compound 10d, 2-(5,6-Dichloro-2-(4-methoxyphenyl)-1H-benzo[d]imidazol-1-yl)-N'-(4-methoxybenzylidene)acetohydrazide]	–	–	–	–	–	–	–	34.1%	50.3%	27.8%	40.9%	60.4%	64.9%	44.6%	52.7 ± 0.87%
COc1ccc(-c2nc3cc(Cl)c(Cl)cc3n2CC(=O)NN=Cc2cccc(OCC(=O)O)c2)cc1 [Compound 10e, 2-(3-((2-(2-(5,6-Dichloro-2-(4-methoxyphenyl)-1H-benzo[d]imidazol-1-yl)acetyl)hydrazono)methyl)phenoxy)acetic acid]	–	–	–	–	–	–	–	< 5%	< 5%	< 5%	< 5%	< 5%	< 5%	< 5%	28.1 ± 2.76%
COc1ccc(-c2nc3cc(Cl)c(Cl)cc3n2CC(=O)NN=Cc2ccc(OCC(=O)O)cc2)cc1 [Compound 10f, 2-(4-((2-(2-(5,6-Dichloro-2-(4-methoxyphenyl)-1H-benzo[d]imidazol-1-yl)acetyl)hydrazono)methyl)phenoxy)acetic acid]	–	–	–	–	–	–	–	< 5%	< 5%	< 5%	< 5%	< 5%	< 5%	< 5%	53.15 ± 0.36%
COC(=O)COc1cccc(C=NNC(=O)Cn2c(-c3ccc(OC)cc3)nc3cc(Cl)c(Cl)cc32)c1 [Compound 10g, Methyl-2-(3-((2-(2-(5,6-dichloro-2-(4-methoxyphenyl)-1H-benzo[d]imidazol-1-yl)acetyl)hydrazono)methyl)phenoxy)acetate]	–	–	–	–	–	–	–	< 5%	< 5%	40.7%	< 5%	< 5%	< 5%	14.6%	39.9 ± 2.49%

Source: article PMC11844072, “Novel 5,6-dichlorobenzimidazole derivatives as dual BRAFWT and BRAFV600E inhibitors: design, synthesis, anti-cancer activity and molecular dynamics simulations” (BMC Chemistry, 2025)
